Reference: patent US9561289B2, “Peptides for inhibiting tumor growth” (OSPEDALE SAN RAFFAELE SRL, priority 2012, dated 2017)
Marks after values point to notes of the source that are not given here. Where a SMILES comes first, the peptide text is derived from it. Bridges are numbered along the chain shown (N, C = ends). [ ]: non-standard residue; d: D form. The star is where a group is joined. X1 = NC(=O)C1CCC(CN2C(=O)CC(*)C2=O)CC1; X2 = O=C(O)C1CCC(CN2C(=O)CC(*)C2=O)CC1; dPhg = N[C@@H](C(=O)O)c1ccccc1

Key:
αvβ3 = biological target: T1, αvβ3 (Homo sapiens, UniProt P05106+P06756); assay: Competitive integrin binding assay (isoDGR/STV-HRP) on αvβ3-coated plates; conditions: number in parenthesis
T1 construct: purchased Immunological Sciences (Rome, Italy)
Protocol: (§1) A conjugate consisting of biotinylated acetyl-Ciso[…] (SEQ ID NO:36) peptide complexed with streptavidin-peroxidase conjugate (isoDGR/STV-HRP) was first prepared as described previously. […] Each mixture was then added to microtiter plates coated with integrins (αvβ3, αvβ5, αvβ6, […], or α5β1) and incubated for 2 h at room temperature. After washing, each well was incubated with 70 μl of chromogenic solution (o-phenylenediamine dihydrochloride) for 20 min, at room temperature. The chromogenic reaction was stopped by adding an equal volume of 1 N sulfuric acid. The absorbance at 490 nm was then measured using a microtiter plate reader.
(§2) The binding affinity and selectivity of each peptide for different integrins were then analyzed by competitive binding assay, using αvβ3-, αvβ5-, αvβ6-, αvβ8- and α5β1-coated plates and isoDGR/STV-HRP, an ac-isoDGR-2C/peroxidase complex, as competitor.

αvβ5 = biological target: T2, αvβ5 (Homo sapiens, UniProt P06756+P18084); assay: Competitive integrin binding assay (isoDGR/STV-HRP) on αvβ5-coated plates; conditions: number in parenthesis
T2 construct: purchased Immunological Sciences (Rome, Italy)
Protocol: as §1, §2

αvβ6 = biological target: T3, αvβ6 (Homo sapiens, UniProt P06756+P18564); assay: Competitive integrin binding assay (isoDGR/STV-HRP) on αvβ6-coated plates; conditions: for ratio of integrin Ki/αvβ3 Ki (αvβ6): number in parenthesis
T3 construct: purchased R&D System (Minneapolis, Minn.)
Protocol: as §1, §2

α5β1 = biological target: T4, α5β1 (Homo sapiens, UniProt P05556+P08648); assay: Competitive integrin binding assay (isoDGR/STV-HRP) on α5β1-coated plates; conditions: number in parenthesis
T4 construct: purchased Immunological Sciences (Rome, Italy)
Protocol: as §1, §2

[1] = test system: EA.hy926 endothelial cells; assay: Endothelial cell adhesion to vitronectin-coated plates; format: cell-based, human; conditions: EA.hy926, substance added to supernatant
Protocol: Endothelial cell (EA.hy926) adhesion to microtiter plates coated with human vitronectin was carried out as described ([25]). IsoDGR#1 and isoDGR#3 were added to the supernatant during cell adhesion. […] Mean±S.E (n=3).
Cell adhesion was quantified by spectrophotometric measurement (A570 nm).

αvβ8 = biological target: T5, αvβ8 (Homo sapiens, UniProt P06756+P26012); assay: Competitive integrin binding assay (isoDGR/STV-HRP) on αvβ8-coated plates; conditions: for ratio of integrin Ki/αvβ3 Ki (αvβ8): number in parenthesis
T5 construct: purchased R&D System (Minneapolis, Minn.)
Protocol: as §1, §2

SMILES | ratio of integrin Ki/αvβ3 Ki (αvβ3) (αvβ3) | ratio of integrin Ki/αvβ3 Ki (αvβ5) (αvβ5) | ratio of integrin Ki/αvβ3 Ki (αvβ6) (αvβ6) | ratio of integrin Ki/αvβ3 Ki (α5β1) (α5β1) | inhibition of endothelial cell adhesion to vitronectin [1] | ratio of integrin Ki/αvβ3 Ki (αvβ8) (αvβ8) | Ki (αvβ6; mean ± SE) [nM] | Ki (αvβ8; mean ± SE) [nM]
N=C(N)NCCC[C@@H]1NC(=O)CNC(=O)C[C@@H](C(=O)O)NC(=O)CNC(=O)[C@H](CS)NC(=O)CNC1=O [isoDGR#1, c(CGisoDGRG)] (GRGCGD-OH; lactam N-6) | (1)^c | (2) | (14) | (3) | could efficiently inhibit endothelial cell adhesion | – | – | –
N=C(N)NCCC[C@@H]1NC(=O)CNC(=O)C[C@@H](C(=O)O)NC(=O)CNC(=O)[C@H](CSC2CC(=O)N(CC3CCC(C(N)=O)CC3)C2=O)NC(=O)CNC1=O (some centres unmarked) [isoDGR#1-P1] (GRGC(X1)GD-OH; lactam N-6) | (1) | (1)^ | (17) | (8.6) | – | (160) | – | –
N=C(N)NCCC[C@@H]1NC(=O)CNC(=O)C[C@@H](C(=O)O)NC(=O)CNC(=O)[C@H](CSC2CC(=O)N(CC3CCC(C(=O)O)CC3)C2=O)NC(=O)CNC1=O (some centres unmarked) [isoDGR#1-P2] (GRGC(X2)GD-OH; lactam N-6) | (1) | (1.6) | (80) | (9.6) | – | (318) | – | –
N=C(N)NCCC[C@@H]1NC(=O)CNC(=O)C[C@@H](C(=O)O)NC(=O)[C@H](CS)NC(=O)CNC1=O [isoDGR#2, c(CisoDGRG)] (GRGCD-OH; lactam N-5) | (1) | (1) | (1.9) | (0.5) | – | (2.2) | – | –
N=C(N)NCCC[C@@H]1NC(=O)CNC(=O)C[C@@H](C(=O)O)NC(=O)[C@H](CS)NC(=O)CNC(=O)CNC1=O [isoDGR#3, c(CisoDGRGG)] (GRGGCD-OH; lactam N-6) | (1) | (1) | (1.3) | (0.5) | could efficiently inhibit endothelial cell adhesion | (1.2) | – | –
N=C(N)NCCC[C@@H]1NC(=O)CNC(=O)C[C@@H](C(=O)O)NC(=O)[C@H](CSC2CC(=O)N(CC3CCC(C(=O)O)CC3)C2=O)NC(=O)CNC(=O)CNC1=O (stereo partly drawn) [isoDGR#3-P2] (GRGGC(X2)D-OH; lactam N-6) | (1) | – | (26) | – | – | (24) | 468 | 430
N=C(N)NCCC[C@@H]1NC(=O)CNC(=O)C[C@@H](C(=O)O)NC(=O)CNC(=O)[C@H](CS)NC(=O)[C@@H](c2ccccc2)NC1=O [isoDGR#5, c(CGisoDGRphg)] (GR[dPhg]CGD-OH; lactam N-6) | (1) | (1.30) | (3.7) | (3.26) | – | (42) | – | –
N=C(N)NCCC[C@@H]1NC(=O)CNC(=O)C[C@@H](C(=O)O)NC(=O)[C@H](CS)NC(=O)[C@@H](c2ccccc2)NC(=O)CNC1=O [isoDGR#7, c(CisoDGRGphg)] (GRG[dPhg]CD-OH; lactam N-6) | (1) | (0.6) | (0.03) | (0.04) | – | (0.4) | – | –
